We go through twelve compounds from patent US20090305995A1, “AGONISTS AND ANTAGONISTS OF THE SOMATOSTATIN RECEPTOR” (Novartis AG, priority 2004, published 2009).

Values after ≈ are worked out from the molar mass of the structure shown. Like-named read-outs stand apart in the source and are kept apart here.

By solubility is commonly meant how much of the substance goes into solution per volume. The term Kd denotes the equilibrium constant for the complex coming apart. Read a low Kd as tighter binding.

A short description of series [1]: logP octanol by pH-metric titration (GLpKa instrument). The class given is physicochemical. Particulars: read-out: log P/D logP octanol. Here is the method:
In order to have a real measure of log P values for highly polar compounds, respective values for compounds 1 to 3 (C-terminal L-β-homothreonine amides) and compounds 7 to 9 (C-terminal 4-amino-5-methyl-dihydro-fuan-2-ones) are measured by employing pH-metric titration technology using a GLpKa instrument (Box et al. 2003). The high polarity of these two mixed α/β^3-tetrapeptides can be controlled by N-terminal introduction of lipophilization tags. The conjugation with fatty acid analogs leads to compounds with druglike polarity (5, 6, 10, 11, 12, 13, 14, 15, 16, 17, 18 and 26).

A short description of series [2]: high throughput solubility (HT-Solubility). It is filed as physicochemical. Particulars: for water solubility (in words): see FIG. 10.
Series [3] can be described thus: HT-logP o/w, high throughput assay based on artificial liquid membrane permeability. The class given is physicochemical. In a few lines: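 Octanol/water partition coefficients measured in a high-throughput format based on permeability across an artificial liquid membrane.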
The nature of series [4]: high throughput permeability (HT-Permeability, log Pe). Conditions: PAMPA, Pe in cm/s. It is filed as physicochemical. (In general: PAMPA measures passive passage across an artificial lipid membrane.)
A further series addresses T1, hsst4 receptor (Homo sapiens, UniProt P31391).
T1 construct: expressed in transfected cells; host or cells: Chinese hamster lung fibroblast (CCL39) cells
The series is described as follows: radioligand-binding displacement assay ([125I]LTT-SRIF28), receptor expressed in CCL39 cells. Particulars: hsst4; [125I]LTT-SRIF28 displacement. Here is the method:
(§1) The generated peptides are tested for their affinity to bind to human SRIF receptors expressed in Chinese hamster lung fibroblast (CCL39) cells. This is achieved in radioligand-binding assays, a displacement experiment in which the concentration of a substance is measured which is necessary for the replacement of 50% of a specifically bound radioligand ([^125I]LTT-SRIF28). Specific binding is measured as the total binding of receptor-specific radioligand minus the amount of radioligand bound in presence of unmarked SRIF-14 (100 nM, nonspecific binding).

The subject of the next series is human SRIF receptors. The series is described as follows: radioligand-binding displacement assay on the human SRIF receptor family (selectivity). Here is the method:
as §1

Setting [5] is: pH 6.8, pH 6.8, read-out: HT-Permeability logPe pH 6.8 (converted).
The mark [6] stands for this setting: pH 8, pH 8.0, read-out: HT-Permeability logPe pH 8.0 (converted).
[7] abbreviates: pH 1, pH 1.0, read-out: HT-Solubility pH 1.0.
Where [8] appears, read: pH 6.8, pH 6.8, read-out: HT-Solubility pH 6.8.
[9] abbreviates: octanol/water, read-out: HT LogP ohw.
[10] abbreviates: pH 4, pH 4.0, read-out: HT-Permeability logPe pH 4.0 (converted).
The mark [11] stands for this setting: octanol/water; read-out: HT LogP ohw.

T1 sequence (P31391 whole entry): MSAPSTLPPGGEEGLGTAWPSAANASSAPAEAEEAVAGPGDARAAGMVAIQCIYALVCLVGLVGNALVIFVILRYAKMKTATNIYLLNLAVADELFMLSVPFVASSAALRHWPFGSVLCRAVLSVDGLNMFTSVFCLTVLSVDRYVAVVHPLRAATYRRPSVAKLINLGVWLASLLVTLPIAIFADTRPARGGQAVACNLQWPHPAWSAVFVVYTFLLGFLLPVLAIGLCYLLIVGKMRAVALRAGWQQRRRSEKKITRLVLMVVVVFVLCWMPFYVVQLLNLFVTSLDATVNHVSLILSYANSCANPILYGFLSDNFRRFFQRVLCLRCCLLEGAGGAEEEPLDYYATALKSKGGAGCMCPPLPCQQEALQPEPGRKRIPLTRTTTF

`CCCCCN(C)C(=O)C[C@H](CCCCN)NC(=O)[C@@H](Cc1c[nH]c2ccccc12)NC(=O)C[C@H](Cc1ccccc1)NC(=O)CC` [Compound 49, Propionyl-(S)-β^3-HPhe-(R)-Trp-(S)-β^3-HLys-methyl-pentyl-amide]: the logP in series [1] is 2.8. For the same compound, in series [2], the “HT-Solubility pH 1.0” value was determined as 0.1294 g 1-1, the “HT-Solubility pH 6.8” value is reported as 0.1294 g 1-1 and the “water solubility (in words)” value is listed as “highest solubility values”. Besides, in series [3] (octanol/water), the “HT LogP ohw” value was determined as 3.7.

Consider `CCCCCN(C)C(=O)C[C@H](CCCCN)NC(=O)[C@@H](Cc1c[nH]c2ccccc12)N(C)C(=O)C[C@H](Cc1ccccc1)NC(=O)CC` [Compound 64], for which the logP in series [1] turned out to be 3.1. Moreover, the “water solubility (in words)” value in series [2] is reported as “highest solubility values”. Moreover, the figures for the Papp in series [4] (setting [5]) and in series [4] (setting [6]) were 6.31 ×10⁻⁶ cm/s and 2 ×10⁻⁶ cm/s, respectively.

For the compound `CCCCCN(C)C(=O)C[C@H](CCCCN)NC(=O)[C@@H](Cc1c[nH]c2ccccc12)NC(=O)C[C@H](Cc1ccccc1)NC(=O)CC` [Compound 48], the solubility in series [2] (setting [7]) and in series [2] (setting [8]) was 129 µg/mL (≈ 200 µM) in each case. For the same compound, in series [2], the “water solubility (in words)” value is listed as “highest solubility values”. Further, the dissociation constant (Kd) at hsst4 receptor amounted to 0.007 µM. Moreover, the logP in series [3] (setting [9]) came to 3.4. In addition, the figures for the Papp in series [4] (setting [10]), in series [4] (setting [5]) and in series [4] (setting [6]) were 3.16 ×10⁻⁶ cm/s, 1.58 ×10⁻⁶ cm/s and 3.98 ×10⁻⁶ cm/s, respectively.

As to `CC(=O)N[C@H](CC(=O)N[C@H](Cc1c[nH]c2ccccc12)C(=O)N[C@@H](CCCCN)CC(=O)N[C@H](CC(N)=O)[C@@H](C)O)Cc1ccccc1` [Compound 3], in series [1], the logP was determined as 0.4. Besides, in series [2], the “HT-Solubility pH 1.0” value was 0.0133 g 1-1 and the “HT-Solubility pH 6.8” value is 0.0133 g 1-1.

Take `CCCCCN(C)C(=O)C[C@H](CCCCN)NC(=O)[C@@H](Cc1c[nH]c2ccccc12)N(Cc1ccccc1)C(=O)C[C@H](Cc1ccccc1)NC(=O)CC` [Compound 67]: the “water solubility (in words)” value in series [2] was “does not allow for good water solubilities”. Moreover, the “selectivity amongst other hsst receptors (factor)” value with human SRIF receptors (hsst4 versus other hsst receptors) is 100. In series [3] (setting [11]), the logP was 4.4.

For `C[C@H]1OC(=O)C[C@H]1NC(=O)C[C@H](CCCCN)NC(=O)[C@@H](Cc1c[nH]c2ccccc12)NC(=O)C[C@H](Cc1ccccc1)NC(=O)C1CCCCC1` [Compound 5, Cyclohexanoyl-(S)-β^3-HPhe-(R)-Trp-(S)-β^3-HLys-(R)-4-amino-(R)-5-methyl-dihydro-furan-2-one], the solubility came out at 35.7 µg/mL (≈ 49.9 µM) in series [2] (setting [7]) and 14.3 µg/mL (≈ 20 µM) in series [2] (setting [8]). The same compound had a Kd on hsst4 receptor of 1.2 µM. Besides, the logP in series [3] (setting [9]) amounted to 3.9. In addition, the Papp in series [4] (setting [10]) was 0.1 ×10⁻⁶ cm/s.

For the compound `CN(C(=O)C[C@@H](N)Cc1ccccc1)[C@H](Cc1c[nH]c2ccccc12)C(=O)N[C@@H](CCCCN)CC(N)=O` [Compound 72, (S)-β^3-HPhe-(R)—N-Me-Trp-(S)-β^3-HLys-NH2], the logP in series [1] amounted to 1.5. Besides, in series [2], the “HT-Solubility pH 1.0” value is on record as 0.1041 g 1-1. The “HT-Solubility pH 6.8” value in series [2] was found to be 0.1041 g 1-1. Besides, the Papp in series [4] (setting [10]) was 5.01 ×10⁻⁶ cm/s; in series [4] (setting [5]), 7.94 ×10⁻⁶ cm/s; in series [4] (setting [6]) it was 6.31 ×10⁻⁶ cm/s.

Take `C[C@@H](O)[C@@H](CC(N)=O)NC(=O)C[C@H](CCCCN)NC(=O)[C@@H](Cc1c[nH]c2ccccc12)NC(=O)C[C@H](Cc1ccccc1)NC(=O)C12CC3CC(CC(C3)C1)C2` [Compound 18, Adamantoyl-(S)-β^3-HPhe-(R)-Trp-(S)-β^3-HLys-(R), (R)—HThr-NH2]: the results for the solubility in series [2] (setting [7]) and in series [2] (setting [8]) were 78.4 µg/mL (≈ 100 µM) and 15.7 µg/mL (≈ 20 µM), respectively. This compound also yielded an equilibrium dissociation constant (Kd) on hsst4 receptor of 6.17 µM. Also, in series [3] (setting [9]), the logP amounted to 3.2. Besides, the Papp in series [4] (setting [10]) is 0.1 ×10⁻⁶ cm/s.

On to `CCN(CC)C(=O)C[C@@H](NC(=O)C[C@H](CCCCN)NC(=O)[C@@H](Cc1c[nH]c2ccccc12)NC(=O)C[C@H](Cc1ccccc1)NC(C)=O)C(C)C` [Compound 22, Ac—(S)-β^3-HPhe-(R)-Trp-(S)-β^3-HLys-(R)-β^3-Leu-diethyl-amide], for which the solubility in series [2] (setting [7]) and in series [2] (setting [8]) was 14.4 µg/mL (≈ 20.1 µM) in each case. Further, the equilibrium dissociation constant (Kd) on hsst4 receptor was found to be 0.166 µM. In series [3] (setting [9]), the logP was determined as 2.3. Moreover, the Papp in series [4] (setting [10]) was 0.1 ×10⁻⁶ cm/s.

Turning to `CC(=O)N[C@H](CC(=O)N[C@H](Cc1c[nH]c2ccccc12)C(=O)N[C@@H](CCCCN)CC(=O)N[C@@H]1CC(=O)O[C@@H]1C)Cc1ccccc1` [Compound 8], the results for the logP in series [1] and in series [3] (setting [11]) were 0.4 and 3.4, respectively. Also, in series [4] (setting [6]), the Papp is 2 ×10⁻⁶ cm/s.

Regarding `CCCCNC(=O)C[C@H](CCCCN)NC(=O)[C@@H](Cc1c[nH]c2ccccc12)NC(=O)C[C@H](Cc1ccccc1)NC(C)=O` [Compound 52, Ace-(S)-β^3-HPhe-(R)-Trp-(S)-β^3-HLys-butyl-amide], the solubility in series [2] (setting [7]) and in series [2] (setting [8]) was 121 µg/mL (≈ 200 µM) in each case. For the same compound, the “water solubility (in words)” value in series [2] is reported as “medium to good”. Besides, binding on hsst4 receptor was put at a Kd of 0.016 µM. Moreover, the logP in series [3] (setting [9]) came to 3.1. Also, the Papp in series [4] (setting [10]) is 6.31 ×10⁻⁶ cm/s; in series [4] (setting [5]) it was 1.58 ×10⁻⁶ cm/s; in series [4] (setting [6]), 1 ×10⁻⁶ cm/s.

For `NCCCC[C@@H](CC(N)=O)NC(=O)[C@@H](Cc1c[nH]c2ccccc12)NC(=O)C[C@@H](N)Cc1ccccc1` [Compound 59, (S)-β^3-HPhe-(R)-Trp-(S)-β^3-HLys-NH2], the logP in series [1] came out at 1. The solubility in series [2] (setting [7]) was found to be 101 µg/mL (≈ 200 µM); in series [2] (setting [8]), 50.7 µg/mL (≈ 100 µM). For the same compound, in the series on human SRIF receptors, the “affinity to the receptors of the SRIF family (in words)” value was “only very low affinity”. For the same compound, on hsst4 receptor, the Kd was 1.51 µM. For the same compound, the figures for the Papp in series [4] (setting [10]), in series [4] (setting [5]) and in series [4] (setting [6]) were 1 ×10⁻⁶ cm/s, 3.98 ×10⁻⁶ cm/s and 3.16 ×10⁻⁶ cm/s, respectively.
